Data on 1 compound can be found in paper PMC7095208 (Nature, 2014).

SMILES strings stand for the structures.

One test relates to RAVV. The note with it: mouse, in vivo.
In a further test the test system is EBOV. The note with it: mouse, in vivo.

As for `Nc1ncnc2c([C@@H]3N[C@H](CO)[C@@H](O)[C@H]3O)c[nH]c12` [BCX4430, (2S,3S,4R,5R)-2-(4-amino-5H-pyrrolo[3,2-d]pyrimidin-7-yl)-5-(hydroxymethyl)pyrrolidine-3,4-diol], in the test on RAVV, the protection was 75–100% and the “protection (survival vs vehicle)” value was “significant protection”. In addition, the “protection against lethal EBOV challenge” value in the test with EBOV is “protected”.
